Counter-ions that a name gives are not always drawn. ± gives the standard error.
Legend:
621-102 (TSC2-deficient) = test: relative viability vs DMSO; higher = less cytotoxic; conditions: serum: 10% FBS, 72 h
621-103 (TSC2-rescued) = test: as above; conditions: serum: 10% FBS, 72 h
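Further: immortalized renal angiomyolipoma cells stably carrying empty vector or TSC2, dosed in 384-well plates in DMEM, viability normalized to vehicle-treated wells within each plate.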

SMILES | relative viability (621-102 (TSC2-deficient); 0.0001 µM) [%] | relative viability (621-102 (TSC2-deficient); 0.001 µM) [%] | relative viability (621-102 (TSC2-deficient); 0.01 µM) [%] | relative viability (621-102 (TSC2-deficient); 0.1 µM) [%] | relative viability (621-102 (TSC2-deficient); 1 µM) [%] | relative viability (621-102 (TSC2-deficient); 10 µM) [%] | relative viability (621-103 (TSC2-rescued); 0.0001 µM) [%] | relative viability (621-103 (TSC2-rescued); 0.001 µM) [%] | relative viability (621-103 (TSC2-rescued); 0.01 µM) [%] | relative viability (621-103 (TSC2-rescued); 0.1 µM) [%] | relative viability (621-103 (TSC2-rescued); 1 µM) [%] | relative viability (621-103 (TSC2-rescued); 10 µM) [%]
CNCCCC12CCC(c3ccccc31)c1ccccc12 [Maprotiline HCl] | 124.2 ± 0.15 | 114 ± 4.2 | 109 ± 5.4 | 107 ± 3.5 | 107.1 ± 0.36 | 82.2 ± 3.8 | 101 ± 1.2 | 102 ± 1.2 | 99.43 ± 0.5 | 95.4 ± 4.2 | 87.6 ± 2.2 | 64.61 ± 0.13
Cc1nnc(C(C)C)n1[C@H]1C[C@H]2CC[C@@H](C1)N2CC[C@H](NC(=O)C1CCC(F)(F)CC1)c1ccccc1 [Maraviroc (Selzentry)] | 94.8 ± 3.3 | 106 ± 1.5 | 107 ± 2.3 | 101 ± 2.6 | 108.3 ± 0.76 | 107 ± 1.8 | 100.6 ± 0.78 | 101 ± 2.7 | 99.264 ± 0.066 | 103 ± 2.9 | 98.1 ± 1.4 | 97.2 ± 1.1
Cc1ccc(NC(=O)c2ccc(CN3CCN(C)CC3)cc2)cc1Nc1nc(-c2cccnc2)cs1 [Masitinib (AB1010)] | 116 ± 1.7 | 103 ± 4.6 | 103 ± 6.5 | 115.4 ± 0.45 | 107 ± 2.1 | 53.4 ± 14 | 104.3 ± 0.28 | 105 ± 1.6 | 107.1 ± 0.95 | 103 ± 2.9 | 104 ± 1.3 | 36.5 ± 2.2
Cc1[nH]c(=O)c(C#N)cc1-c1ccncc1 [Milrinone (Primacor)] | 109 ± 3.1 | 114 ± 2.9 | 110 ± 2 | 103.33 ± 0.049 | 107 ± 3.9 | 107 ± 1.4 | 95.74 ± 0.27 | 91.11 ± 0.53 | 95.5 ± 9.2 | 91.8 ± 3.8 | 91.27 ± 0.77 | 89.3 ± 2.9
O=C1c2c(O)ccc(O)c2C(=O)c2c(NCCNCCO)ccc(NCCNCCO)c21 [Mitoxantrone] | 79.5 ± 1.5 | 70.5 ± 3.2 | 65.8 ± 4.4 | 33.21 ± 0.054 | 5.07 ± 0.86 | 2.13 ± 0.16 | 94.9 ± 2.3 | 87.32 ± 0.1 | 90.41 ± 0.1 | 36.95 ± 0.31 | 8.71 ± 0.34 | 3.19 ± 0.27
NC(=O)c1ncn([C@@H]2O[C@H](CO)[C@@H](O)[C@H]2O)c1O [Mizoribine] | 102 ± 2.1 | 98.3 ± 1.2 | 102 ± 1.2 | 100.8 ± 0.97 | 99.9 ± 2.9 | 92.9 ± 2.9 | 104.1 ± 0.62 | 99.8 ± 2 | 99.1 ± 2.2 | 105 ± 3.8 | 98.1 ± 2.5 | 97.4 ± 2.2
N=C(N)NC(=N)N1CCOCC1 [Moroxydine] | 109 ± 1.8 | 111 ± 1.4 | 111 ± 4.4 | 107 ± 1.3 | 109.9 ± 0.84 | 99.87 ± 0.55 | 87.36 ± 0.38 | 86.9 ± 5.6 | 96.1 ± 4.8 | 92.5 ± 0.95 | 92.6 ± 2.9 | 86.5 ± 2.3
CC1(C)CNc2cc(NC(=O)c3cccnc3NCc3ccncc3)ccc21 [Motesanib DiPhosphate] | 104 ± 1.8 | 119 ± 1.9 | 115.2 ± 1.1 | 110 ± 3 | 104 ± 2.7 | 107 ± 2 | 94.7 ± 3.1 | 102.6 ± 0.75 | 102.5 ± 0.75 | 102 ± 1.3 | 93 ± 1.9 | 98 ± 1.7
FC(F)(F)c1ccc(/C=C/c2nc(COc3ccc(CCCCn4ccnn4)cc3)co2)cc1 [Mubritinib (TAK 165)] | 106 ± 3.2 | 105.09 ± 0.037 | 97.5 ± 1.1 | 103 ± 2.6 | 107 ± 1.2 | 110.2 ± 1.1 | 112 ± 3.3 | 106 ± 2 | 104 ± 2.1 | 112 ± 1.4 | 107 ± 2.1 | 115 ± 1.7
CC(C)(C)c1[nH]cnc1/C=c1\[nH]c(=O)/c(=C/c2ccccc2)[nH]c1=O [NPI-2358] | 88.4 ± 2.1 | 50.4 ± 2 | 55.9 ± 1.8 | 42 ± 0.5 | 36.5 ± 2 | 41.3 ± 2.3 | 86.9 ± 4.1 | 45.4 ± 0.88 | 62 ± 1.6 | 36.2 ± 0.99 | 32.4 ± 0.92 | 33.1 ± 0.41

— the supplement of paper PMC8960247
